Laboratory results as given in US20090137652A1, “METHODS FOR NEUROPROTECTION” (priority 2005, published 2009).
Several values for one entry are separate records, joined by “and”; a condition that tells them apart may be missing. Equal entries are not always repeated.

Columns and labels:
[1] = test system: rats subjected to Li-pilo induced SE; assay: EEG patterns during lithium-pilocarpine SE (Example 1); type: in vivo, rat; conditions: DZP-treated rats (2 mg/kg i.m.)
Protocol: Male Wistar rats weighing 225-250 g, provided by Janvier Breeding Center (Le Genest-St-lste, France) were housed under controlled standard conditions (light/dark cycle, 7.00 a.m.-7.00 p.m. lights on), with food and water available ad libitum. All animal experimentation was performed in accordance with the rules of the European Communities Council Directive of Nov. 24, 1986 (86/609/EEC), and the French Department of Agriculture (License No 67-97). For electrode implantation, rats were anesthetized by an i.p. injection of 2.5 mg/kg diazepam (DZP, Valium, Roche, France) and […] ketamine chlorhydrate (Imalgene 1000, Rhone Merrieux, France). Four single-contact recording electrodes were placed on the skull, over the parietal cortex, two on each side.
All rats received lithium chloride (3 meq/kg, i.p., Sigma, St Louis, Mo., U.S.A.); about 20 h later, animals were placed into plexiglas boxes, in order to record baseline cortical EEG. Methylscopolamine bromide (1 mg/kg, s.c., Sigma) was administered to limit the peripheral effects of the convulsant. SE was induced by injecting pilocarpine hydrochloride (25 mg/kg, s.c., Sigma) 30 min after methyl-scopolamine. The bilateral EEG cortical activity was recorded during the whole duration of SE and behavioral changes were noted.
The effects of increasing doses of the test compound were studied on 3 groups of rats. The animals of the first group received 10 mg/kg of the test compound, i.p., 1 h after the onset of SE (pilo-TC10) while the animals of groups 2 and 3 received 30 and 60 mg/kg of the test compound (pilo-TC30 and pilo-TC60), respectively.
Another group was injected with 2 mg/kg diazepam (DZP, i.m.) at 1 h after the onset of SE. This is a standard treatment to improve animals survival after SE (pilo-DZP). The control group received saline instead of pilocarpine and the test compound (saline-saline). The pilo-test compound rats surviving SE were then injected about 10 h after the first test compound injection with a second i.p. injection of the same dose of the test compound and were maintained under a twice daily treatment with the test compound for 6 additional days. Pilo-DZP received a second injection of 1 mg/kg DZP on the day of SE at about 10 h after the first one. Thereafter, Pilo-DZP and saline-saline rats received twice daily an equivalent volume of saline.
The effects of the test compound on the EEG and on the latency to occurrence of SRS were investigated by daily video recording of the animals for 10 h per day and the recording of the electrographic activity twice a week for 8 h.

[2] = test system: rats subjected to li-pilo SE; assay: Quantification of cell densities 14 days after lithium-pilocarpine SE (Example 2); type: in vivo, rat; conditions: 14 days after SE
Protocol: All rats received lithium chloride (3 meq/kg, i.p., Sigma, St Louis, Mo., U.S.A.) and about 20 h later, all animals received also methylscopolamine bromide (1 mg/kg, s.c., Sigma) that was administered to limit the peripheral effects of the convulsant. SE was induced by injecting pilocarpine hydrochloride (25 mg/kg, s.c., Sigma) 30 min after methylscopolamine. The effects of increasing doses of TC (RWJ) were studied in 5 groups of rats. […] The control group received vehicle instead of pilocarpine and TC.
At the moment, neuronal counting is still in progress in the second group of animals studied for epileptogenesis and long-term counting and the data concerning that part of the study will not be included in the present report. For neuronal counting, animals were deeply anesthetized with […] pentobarbital (Dolethal®, Vetoquinol, Lure, France). Brains were then removed and frozen. Serial 20 μm slices were cut in a cryostat, air-dried during several days before thionine staining. […] The grid of counting was placed on a well defined area of the cerebral structure of interest and counting was carried out with a microscopic enlargement of 200- or 400-fold defined for each single cerebral structure. Cell counts were performed twice on each side of three adjacent sections for each region by a single observer unaware of the animal's treatment. The number of cells obtained in the 12 counted fields in each cerebral structure was averaged. This procedure was used to minimize the potential errors that could result from double counting leading to overestimation of cell numbers. […] Counts involved only neurons with cell bodies larger than 10 μm. Cells with small cell bodies were considered as glial cells and were not counted.
For neuronal damage and epileptogenesis, statistical analysis between groups was performed by means of a one-way analysis of variance followed by a post-hoc Dunnett or Fisher test using the Statistica software.

[3] = DZP rats compared to control rats
[4] = DZP rats compared to control saline-treated rats
[5] = pilo-DZP (2.5 mg/kg i.m.), n = 7

CN1C(=O)CN=C(c2ccccc2)c2cc(Cl)ccc21 [DZP, diazepam, reference compound]
EEG activity in the cortex and the hippocampus by 6-7 h of SE [1]: spiking activity was still present | neurons surviving, all parts of the entorhinal cortex ([2]; DZP group): 27-81% | neuronal damage, amygdala central nucleus [2, 3]: no neuronal damage | neuronal drop out, CA1 region of the hippocampus (pyramidal cell layer) [2, 3]: 85% | neuronal drop out, amygdala basolateral nucleus [2, 3]: 73% | neuronal drop out, amygdala medial dorsal anterior nucleus [2, 3]: 53% | neuronal drop out, thalamus central medial nucleus [2, 3]: 34% | neuronal drop out, thalamus dorsolateral medial dorsal nucleus [2, 3]: 40% | neuronal drop out, thalamus mediodorsal central nucleus [2, 3]: 18% | neuronal drop out, thalamus mediodorsal lateral nucleus [2, 3]: 24% | neuronal loss, CA3 region [2, 3]: 40% | neuronal loss, amygdala medial ventral posterior nucleus [2, 3]: 38% | neuronal loss, hilus of the dentate gyrus [2, 3]: 65% and 66% | neuronal loss, thalamus mediodorsal nucleus [2, 3]: 49% | neuronal loss, ventral lateral division of the dorsolateral thalamic nucleus [2, 3]: 90% | damage, dorsal entorhinal cortex layer II [2, 4]: 18% | damage, dorsal entorhinal cortex layers III-IV [2, 4]: 24% | damage, ventral entorhinal cortex layer II [2, 4]: 22% and 19% | damage, ventral entorhinal cortex layers III/IV [2, 4]: 74% and 73% | neuronal loss, piriform cortex dorsal layer II [2, 4]: 66% | neuronal loss, piriform cortex layer III [2, 4]: 94% | neuronal loss, piriform cortex ventral layer II [2, 4]: 89% | number of neuronal cell bodies, Amygdala, Basolateral [2, 5]: 12.8 ± 5.3 | number of neuronal cell bodies, Amygdala, Medial, dorsal anterior [2, 5]: 40.0 ± 2.5 | number of neuronal cell bodies, Amygdala, Medial, ventral posterior [2, 5]: 21.8 ± 2.4 | number of neuronal cell bodies, Cerebral cortex, Entorhinal, layer II, dorsal [2, 5]: 23.5 ± 0.7 | number of neuronal cell bodies, Cerebral cortex, Entorhinal, layer II, ventral [2, 5]: 21.7 ± 1.3 | number of neuronal cell bodies, Cerebral cortex, Entorhinal, layer III/IV, dorsal [2, 5]: 22.3 ± 0.5 | number of neuronal cell bodies, Cerebral cortex, Entorhinal, layer III/IV, ventral [2, 5]: 7.7 ± 2.3 | number of neuronal cell bodies, Cerebral cortex, Piriform, layer II, dorsal [2, 5]: 12.6 ± 4.2 | number of neuronal cell bodies, Cerebral cortex, Piriform, layer II, ventral [2, 5]: 3.6 ± 0.7 | number of neuronal cell bodies, Cerebral cortex, Piriform, layer III [2, 5]: 1.2 ± 1.2 | number of neuronal cell bodies, Hippocampus, CA1 area [2, 5]: 10.9 ± 1.9 | number of neuronal cell bodies, Hippocampus, CA3 area [2, 5]: 31.3 ± 2.9 | number of neuronal cell bodies, Hippocampus, Hilus [2, 5]: 33.5 ± 3.0 | number of neuronal cell bodies, Thalamus, Central medial [2, 5]: 74.2 ± 7.4 | number of neuronal cell bodies, Thalamus, Dorsolateral, medial, dorsal [2, 5]: 61 ± 6.3 | number of neuronal cell bodies, Thalamus, Dorsolateral, ventral lateral [2, 5]: 9.7 ± 2.5 | number of neuronal cell bodies, Thalamus, Mediodorsal central [2, 5]: 26.3 ± 1.8 | number of neuronal cell bodies, Thalamus, Mediodorsal lateral [2, 5]: 19.6 ± 0.8 | number of neuronal cell bodies, Thalamus, Mediodorsal medial [2, 5]: 16.4 ± 1.9
